Consider 9 compounds from patent publication US11802147B2, “High affinity monoclonal antibodies for detecting amanitins” (priority 2019, dated 2023).

≈ marks a conversion by molar mass, not a printed value. Like-named read-outs stand apart in the source and are kept apart here. Starred links: 1 amine or outer side, 2 acyl side, 3 side chain; linkers in the order of their positions; H or OH if unused. Positions of bridges follow the written chain, without caps; N, C: chain ends. Non-standard residues stand in square brackets, D forms with d. Residues, ends and D or L forms follow the SMILES beside them. ξ: configuration not given here. Adda = CO[C@@H](Cc1ccccc1)[C@@H](C)/C=C(C)/C=C/[C@H](N[*:1])[C@H](C)C(=O)[*:2]; Trp(2-yl) = O=C([C@H](Cc1c([*:3])[nH]c2ccccc12)N[*:1])[*:2]; dAsp(3S-Me) = C[C@H](C(=O)[*:3])[C@@H](N[*:1])C(=O)[*:2]; ξTrp(2-yl) = O=C(C(Cc1c([*:3])[nH]c2ccccc12)N[*:1])[*:2]; Leu(4R-OH,5-OH) = C[C@](O)(CO)C[C@H](N)C(=O)O; d(γGlu) = O=C(O)[C@@H](CCC(=O)[*:2])N[*:1]; X1 = CC(O)(CO)CC(N[*:1])C(=O)[*:2]; cisHyp = O=C(O)[C@@H]1C[C@H](O)CN1; ξAsp(3ξ-OH) = NC(C(=O)O)C(O)C(=O)O; Hyp = O=C(O)[CH]1C[CH](O)CN1; NMeDha = C=C(NC)C(=O)O

The test system of experiment [1] is mAb 9C12.2. The class given is binding, mouse. To be noted: for competitive inhibition of mAb 9C12.2: cELISA, up to 1,000 ng/mL; for recognition by mAb 9C12.2: statement of deposit.
For experiment [2], the system named is Previously described mAbs to amatoxins. To be noted: He et al; cited from earlier work.
Experiment [3] has as its system mAb 9G3.2. The class given is binding, mouse. To be noted: for competitive inhibition of mAb 9G3.2: cELISA, up to 1,000 ng/mL; for recognition by mAb 9G3.2: statement of deposit.
The test system of experiment [4] is mAb AMA9G3. Type of experiment: binding, mouse. Details: concentration at which test strips detect: unit not given here. To be noted: for concentration giving complete inhibition of the signal: either hapten as test line; for CR (cross-reactivity): lateral flow test strips.
Setting [5] is: mAb 9C12.2, (IC50 α-AMA)/(IC50 test inhibitor)×100.
[6] abbreviates: mAb 9C12.2, inhibitor mixed with antibody, PERI-AMA-BSA coated plate.
The mark [7] stands for this setting: mAb 9G3.2, (IC50 α-AMA)/(IC50 test inhibitor)×100.
Setting [8] is: mAb 9G3.2, inhibitor mixed with antibody, PERI-AMA-BSA coated plate.
[9] abbreviates: cross-reactivity with near neighbor compounds.

For the compound `CC[C@H](C)[C@@H]1NC(=O)CNC(=O)[C@@H]2Cc3c([nH]c4cc(O)ccc34)[S+]([O-])C[C@@H](NC(=O)CNC1=O)C(=O)N[C@@H](CC(N)=O)C(=O)N1C[C@H](O)C[C@H]1C(=O)N[C@@H]([C@@H](C)[C@@H](O)CO)C(=O)N2` (stereo in doubt) [α-amanitin], in experiment [1], the “competitive inhibition of mAb 9C12.2” value is “competitively inhibited” and the “recognition by mAb 9C12.2” value was “recognizes”. In addition, in experiment [1] (setting [5]), the Cross reactivity stood at 100%. Also, the IC50 in experiment [1] (setting [6]) amounted to 0.00266 ± 0.00018 µg/mL (≈ 0.00289 µM). Moreover, the “IC50 of previously described mAbs” value in experiment [2] is 0.066 µg/mL. In addition, in experiment [3], the “competitive inhibition of mAb 9G3.2” value is “competitively inhibited” and the “recognition by mAb 9G3.2” value is reported as “recognizes”. Further, in experiment [3] (setting [7]), the Cross reactivity is 100%. In experiment [3] (setting [8]), this compound yielded an IC50 of 0.00157 µg/mL (≈ 0.00171 µM). Also, in experiment [4], the “concentration giving complete inhibition of the signal” value came to 10 ng/mL.
`N[C@H](C(=O)O)c1cc(=O)[nH]o1` [ibotenic acid]: the Cross reactivity in experiment [1] (setting [5]) and in experiment [3] (setting [7]) was below 0.3% in each case. Moreover, the 50% inhibitory concentration (IC50) in experiment [1] (setting [6]) and in experiment [3] (setting [8]) was above 1 µg/mL throughout. The “detection by test strips” value in experiment [4] (setting [9]) is reported as “did not detect”.
Regarding `C=C1C(=O)N[C@H](C)C(=O)N[C@@H](CC(C)C)C(=O)N[C@@H](C(=O)O)[C@H](C)C(=O)N[C@@H](CCCNC(=N)N)C(=O)N[C@@H](/C=C/C(C)=C/[C@H](C)[C@H](Cc2ccccc2)OC)[C@H](C)C(=O)N[C@@H](C(=O)O)CCC(=O)N1C` [microcystin-LR] (R[Adda][d(γGlu)][NMeDha][dA]L[dAsp(3S-Me)]-OH; lactam N-7), in experiment [1], the Cross reactivity is on record as below 0.3% and the IC50 was above 1 µg/mL. Besides, in experiment [3], the Cross reactivity is listed as below 0.3% and the IC50 is above 1 µg/mL. In addition, the “detection by test strips” value in experiment [4] is on record as “did not detect”.
As for `NCc1cc(=O)[nH]o1` [muscimol], the Cross reactivity in experiment [1] (setting [5]) and in experiment [3] (setting [7]) was below 0.3% throughout. For the same compound, the IC50 in experiment [1] (setting [6]) and in experiment [3] (setting [8]) was above 1 µg/mL in each case. Further, the “detection by test strips” value in experiment [4] (setting [9]) is listed as “did not detect”.
Consider `C/C=C1/C(=O)N[C@@H](C(=O)O)[C@H](C)C(=O)N[C@@H](CCCNC(=N)N)C(=O)N[C@@H](/C=C/C(C)=C/[C@H](C)[C@H](Cc2ccccc2)OC)[C@H](C)C(=O)N[C@@H](C(=O)O)CCC(=O)N1C` [nodularin], for which, in experiment [1], the Cross reactivity is below 0.3% and the concentration for half-maximal inhibition (IC50) is above 1 µg/mL. In addition, in experiment [3], the Cross reactivity is on record as below 0.3% and the IC50 was above 1 µg/mL. Further, in experiment [4], the “detection by test strips” value is given as “did not detect”.
Regarding `CC1NC(=O)C2CC(O)CN2C(=O)C2CSc3[nH]c4ccccc4c3CC(NC1=O)C(=O)NC(CC(C)(O)CO)C(=O)NC(C(C)C)C(=O)NC(C(O)C(=O)O)C(=O)N2` (stereo not drawn) [phallacidin] (cyclo([ξAsp(3ξ-OH)]C[Hyp]A[ξTrp(2-yl)][X1]V); thioether 2-5; configuration not given here), the Cross reactivity in experiment [1] (setting [5]) and in experiment [3] (setting [7]) was below 0.3% throughout. Further, the IC50 in experiment [1] (setting [6]) and in experiment [3] (setting [8]) was above 1 µg/mL in each case. The “concentration at which test strips detect” value in experiment [4] (setting [9]) is 200. In experiment [4], the “CR (cross-reactivity)” value is recorded as 0.005%.
As to `C[C@@H]1NC(=O)[C@H](C[C@@](C)(O)CO)NC(=O)[C@@H]2Cc3c([nH]c4ccccc34)SC[C@H](NC(=O)[C@@H]([C@H](C)O)NC1=O)C(=O)N1C[C@@H](O)C[C@H]1C(=O)N[C@@H](C)C(=O)N2` [phalloidin] (cyclo(A[dT]C[cisHyp]A[Trp(2-yl)][Leu(4R-OH,5-OH)]); thioether 3-6), the Cross reactivity in experiment [1] (setting [5]) and in experiment [3] (setting [7]) was below 0.3% in each case. The IC50 in experiment [1] (setting [6]) and in experiment [3] (setting [8]) was above 1 µg/mL throughout. The “CR (cross-reactivity)” value in experiment [4] turned out to be 0.005%.
As to β-amanitin, in experiment [1], the “competitive inhibition of mAb 9C12.2” value is reported as “no reduction in signal response” and the “recognition by mAb 9C12.2” value was “recognizes”. For the same compound, the Cross reactivity in experiment [1] (setting [5]) was below 0.3%. This compound had an IC50 in experiment [1] (setting [6]) above 1 µg/mL. Moreover, in experiment [3], the “competitive inhibition of mAb 9G3.2” value is given as “competitively inhibited” and the “recognition by mAb 9G3.2” value is “recognizes”. In experiment [3] (setting [7]), the Cross reactivity is listed as 6.5%. This compound returned an IC50 in experiment [3] (setting [8]) of 0.0242 ± 0.0062 µg/mL.
For the compound γ-amanitin, the “competitive inhibition of mAb 9C12.2” value in experiment [1] is “competitively inhibited”. The Cross reactivity in experiment [1] (setting [5]) came out at 115%; in experiment [3] (setting [7]), 96%. Further, the IC50 in experiment [1] (setting [6]) is 0.0023 ± 0.00031 µg/mL; in experiment [3] (setting [8]) it was 0.00163 ± 0.00021 µg/mL. Also, in experiment [3], the “competitive inhibition of mAb 9G3.2” value is given as “competitively inhibited”. For the same compound, in experiment [3], the “recognition by mAb 9G3.2” value is on record as “recognizes”. In addition, the “concentration giving complete inhibition of the signal” value in experiment [4] is 10 ng/mL.
